Data: PubChem BioAssay AID226 (DTP/NCI, 2004)
Where “and” joins values, the source holds several entries; their conditions need not be identical. Equal values may be shown once. Toxic doses and inconclusive results are not listed.

Tested on: B6C3F1 mice, intracerebral ependymoblastoma, median survival T/C
Assay: NCI In Vivo Anticancer Drug Screen. Data for tumor model Ependymoblastoma (intracerebral) in B6C3F1 mice
Settings: endpoint: median survival time, higher = longer survival
Description: The antitumor activity of compounds was measured in mice bearing transplantable tumors. Survival or tumor size were measured and the results are expressed as the measurement made in the treated group (T) divided by the measurement made in the vehicle treated control group (C). The tumor model used in this assay is Ependymoblastoma (intracerebral) in B6C3F1 mice

[1] = dose: 12.5 mg/kg/injection, schedule: Q01DX005 (ip), vehicle: Klucel (hydroxypropylcellulose) (HPC)

Question: For `O=CC(NC(=O)N(CCCl)N=O)C(O)C(O)C(O)CO` (centres undefined), which T/C (dose: 0.12 mg/kg/injection, schedule: Q01DX005 (ip), vehicle: saline) is on record?
Answer: Its T/C is 97 % of control and 99 % of control and 108 % of control.

Question: And the T/C (dose: 0.13 mg/kg/injection, schedule: Q01DX005 (ip), vehicle: saline)?
Answer: The T/C was 91 % of control and 93 % of control.

Question: What about the T/C (dose: 1.0 mg/kg/injection, schedule: Q01DX001 (ip), vehicle: Klucel (hydroxypropylcellulose) (HPC)) of the same compound?
Answer: Its T/C is 93 % of control and 104 % of control and 107 % of control.

Question: What about the T/C (dose: 1.0 mg/kg/injection, schedule: Q01DX005 (ip), vehicle: Klucel (hydroxypropylcellulose) (HPC)) of the same compound?
Answer: The T/C was 108 % of control.

Question: What about the T/C (dose: 2.0 mg/kg/injection, schedule: Q01DX001 (ip), vehicle: Klucel (hydroxypropylcellulose) (HPC)) of the same compound?
Answer: The T/C was 99 % of control and 103 % of control and 108 % of control.

Question: What about the T/C (dose: 2.0 mg/kg/injection, schedule: Q01DX005 (ip), vehicle: Klucel (hydroxypropylcellulose) (HPC)) of the same compound?
Answer: Its T/C is 119 % of control.

Question: What about the T/C (dose: 3.13 mg/kg/injection, schedule: Q01DX001 (ip), vehicle: saline) of the same compound?
Answer: Its T/C is 115 % of control.

Question: And the T/C (dose: 4.0 mg/kg/injection, schedule: Q01DX001 (ip), vehicle: Klucel (hydroxypropylcellulose) (HPC))?
Answer: The T/C was 100 % of control and 107 % of control and 108 % of control.

Question: What about the T/C (dose: 4.0 mg/kg/injection, schedule: Q01DX009 (ip), vehicle: saline) of the same compound?
Answer: Its T/C is 195 % of control.

Question: And the T/C (dose: 6.25 mg/kg/injection, schedule: Q01DX001 (ip), vehicle: saline)?
Answer: The T/C was 122 % of control.

Question: And the T/C (dose: 8.0 mg/kg/injection, schedule: Q01DX001 (ip), vehicle: Klucel (hydroxypropylcellulose) (HPC))?
Answer: The T/C was 103 % of control and 110 % of control and 113 % of control.

Question: And the T/C (dose: 16.0 mg/kg/injection, schedule: Q01DX001 (ip), vehicle: Klucel (hydroxypropylcellulose) (HPC))?
Answer: Its T/C is 111 % of control and 115 % of control and 119 % of control.

Question: And the T/C (dose: 25.0 mg/kg/injection, schedule: Q01DX001 (ip), vehicle: saline)?
Answer: Its T/C is 157 % of control.

Question: Which T/C (dose: 9.38 mg/kg/injection, schedule: Q01DX009 (ip), vehicle: saline) does the source give for `NC(=O)c1csc(C2OC(CO)C(O)C2O)n1` (centres undefined) here?
Answer: The T/C was 96 % of control.

Question: And the T/C (dose: 18.8 mg/kg/injection, schedule: Q01DX009 (ip), vehicle: saline)?
Answer: Its T/C is 107 % of control.

Question: What about the T/C (dose: 37.5 mg/kg/injection, schedule: Q01DX005 (ip), vehicle: saline) of the same compound?
Answer: The T/C was 93 % of control and 110 % of control.

Question: And the T/C (dose: 37.5 mg/kg/injection, schedule: Q01DX009 (ip), vehicle: saline)?
Answer: The T/C was 99 % of control and 110 % of control.

Question: What about the T/C (dose: 75.0 mg/kg/injection, schedule: Q01DX005 (ip), vehicle: saline) of the same compound?
Answer: Its T/C is 101 % of control and 107 % of control.

Question: What about the T/C (dose: 75.0 mg/kg/injection, schedule: Q01DX009 (ip), vehicle: saline) of the same compound?
Answer: Its T/C is 112 % of control and 121 % of control.

Question: What about the T/C (dose: 150.0 mg/kg/injection, schedule: Q01DX005 (ip), vehicle: saline) of the same compound?
Answer: The T/C was 113 % of control and 116 % of control.

Question: And the T/C (dose: 150.0 mg/kg/injection, schedule: Q01DX009 (ip), vehicle: saline)?
Answer: The T/C was 110 % of control and 119 % of control.

Question: What about the T/C (dose: 300.0 mg/kg/injection, schedule: Q01DX005 (ip), vehicle: saline) of the same compound?
Answer: The T/C was 108 % of control and 114 % of control.

Question: And the T/C (dose: 300.0 mg/kg/injection, schedule: Q01DX009 (ip), vehicle: saline)?
Answer: The T/C was 114 % of control.

Question: What about the T/C (dose: 600.0 mg/kg/injection, schedule: Q01DX005 (ip), vehicle: saline) of the same compound?
Answer: Its T/C is 101 % of control and 114 % of control.

Question: What about the T/C (dose: 600.0 mg/kg/injection, schedule: Q01DX009 (ip), vehicle: saline) of the same compound?
Answer: The T/C was 123 % of control.

Question: Which results are given for `CCCC(=O)OCC1OC(n2cnc3c(=S)nc(N)[nH]c32)C(OC(=O)CCC)C1OC(=O)CCC` (centres undefined)?
Answer: T/C (dose: 3.12 mg/kg/injection, schedule: Q01DX005 (ip), vehicle: Klucel (hydroxypropylcellulose) (HPC)): 102 % of control and 113 % of control; T/C (dose: 6.25 mg/kg/injection, schedule: Q01DX005 (ip), vehicle: Klucel (hydroxypropylcellulose) (HPC)): 98 % of control and 104 % of control; T/C [1]: 106 % of control

Question: Which results are given for `CCCC(=O)OCC1OC(n2cnc3c(=S)nc[nH]c32)C(OC(=O)CCC)C1OC(=O)CCC` (centres undefined)?
Answer: T/C (dose: 25.0 mg/kg/injection, schedule: Q01DX005 (ip), vehicle: saline with Tween-80): 103 % of control; T/C (dose: 50.0 mg/kg/injection, schedule: Q01DX005 (ip), vehicle: saline with Tween-80): 105 % of control

Question: `CC(C)c1cc(C(=O)O)c(O)c(C(C)C)c1.CC(C)c1cc(C(=O)O)c(O)c(C(C)C)c1.[Cu]` was tested. Which T/C (dose: 6.25 mg/kg/injection, schedule: Q01DX005 (ip), vehicle: saline with Tween-80) did it give?
Answer: Its T/C is 103 % of control.

Question: What about the T/C (dose: 12.5 mg/kg/injection, schedule: Q01DX005 (ip), vehicle: saline with Tween-80) of the same compound?
Answer: The T/C was 103 % of control.

Question: For `O=C(O)CC(NC(=O)CP(=O)(O)O)C(=O)O` (centres undefined), which T/C (dose: 1.0 mg/kg/injection, schedule: Q01DX005 (ip), vehicle: saline) is on record?
Answer: The T/C was 117 % of control.

Question: What about the T/C (dose: 2.0 mg/kg/injection, schedule: Q01DX005 (ip), vehicle: saline) of the same compound?
Answer: Its T/C is 104 % of control.

Question: And the T/C (dose: 4.0 mg/kg/injection, schedule: Q01DX005 (ip), vehicle: saline)?
Answer: Its T/C is 108 % of control.

Question: What about the T/C (dose: 8.0 mg/kg/injection, schedule: Q01DX005 (ip), vehicle: saline) of the same compound?
Answer: Its T/C is 104 % of control.

Question: And the T/C (dose: 16.0 mg/kg/injection, schedule: Q01DX005 (ip), vehicle: saline)?
Answer: The T/C was 107 % of control.

Question: And the T/C (dose: 27.0 mg/kg/injection, schedule: Q#ADX018 (ip), vehicle: saline)?
Answer: Its T/C is 99 % of control.

Question: What about the T/C (dose: 32.0 mg/kg/injection, schedule: Q01DX005 (ip), vehicle: saline) of the same compound?
Answer: The T/C was 101 % of control and 111 % of control.

Question: What about the T/C (dose: 32.0 mg/kg/injection, schedule: Q04DX003 (ip), vehicle: saline) of the same compound?
Answer: The T/C was 96 % of control.

Question: And the T/C (dose: 45.0 mg/kg/injection, schedule: Q01DX009 (ip), vehicle: saline with Tween-80)?
Answer: Its T/C is 90 % of control.

Question: What about the T/C (dose: 45.0 mg/kg/injection, schedule: Q12HX010 (ip), vehicle: saline) of the same compound?
Answer: Its T/C is 103 % of control.

Question: And the T/C (dose: 45.0 mg/kg/injection, schedule: Q#A X010 (ip), vehicle: saline)?
Answer: Its T/C is 180 % of control.

Question: What about the T/C (dose: 45.0 mg/kg/injection, schedule: Q#ADX018 (ip), vehicle: saline) of the same compound?
Answer: Its T/C is 102 % of control.

Question: And the T/C (dose: 64.0 mg/kg/injection, schedule: Q01DX005 (ip), vehicle: saline)?
Answer: Its T/C is 104 % of control and 114 % of control.

Question: And the T/C (dose: 64.0 mg/kg/injection, schedule: Q04DX003 (ip), vehicle: saline)?
Answer: The T/C was 109 % of control.

Question: What about the T/C (dose: 90.0 mg/kg/injection, schedule: Q01DX005 (ip), vehicle: saline) of the same compound?
Answer: Its T/C is 95 % of control and 100 % of control.

Question: What about the T/C (dose: 90.0 mg/kg/injection, schedule: Q01DX009 (ip), vehicle: saline with Tween-80) of the same compound?
Answer: Its T/C is 109 % of control.

Question: What about the T/C (dose: 90.0 mg/kg/injection, schedule: Q#A X010 (ip), vehicle: saline) of the same compound?
Answer: The T/C was 187 % of control.

Question: And the T/C (dose: 90.0 mg/kg/injection, schedule: Q#ADX018 (ip), vehicle: saline)?
Answer: Its T/C is 95 % of control.

Question: What about the T/C (dose: 100.0 mg/kg/injection, schedule: Q12HX010 (ip), vehicle: saline) of the same compound?
Answer: The T/C was 109 % of control.

Question: What about the T/C (dose: 128.0 mg/kg/injection, schedule: Q01DX005 (ip), vehicle: saline) of the same compound?
Answer: The T/C was 101 % of control and 117 % of control.

Question: And the T/C (dose: 128.0 mg/kg/injection, schedule: Q04DX003 (ip), vehicle: saline)?
Answer: The T/C was 105 % of control.

Question: What about the T/C (dose: 180.0 mg/kg/injection, schedule: Q01DX005 (ip), vehicle: saline) of the same compound?
Answer: Its T/C is 106 % of control and 110 % of control.

Question: What about the T/C (dose: 180.0 mg/kg/injection, schedule: Q12HX010 (ip), vehicle: saline) of the same compound?
Answer: Its T/C is 107 % of control.

Question: And the T/C (dose: 180.0 mg/kg/injection, schedule: Q#A X010 (ip), vehicle: saline)?
Answer: The T/C was 172 % of control.

Question: What about the T/C (dose: 256.0 mg/kg/injection, schedule: Q01DX005 (ip), vehicle: saline) of the same compound?
Answer: The T/C was 110 % of control.

Question: And the T/C (dose: 256.0 mg/kg/injection, schedule: Q04DX003 (ip), vehicle: saline)?
Answer: Its T/C is 114 % of control.

Question: For `O=c1ccc2ccccc2o1`, which T/C [1] is on record?
Answer: The T/C was 100 % of control.

Question: What about the T/C (dose: 25.0 mg/kg/injection, schedule: Q01DX005 (ip), vehicle: Klucel (hydroxypropylcellulose) (HPC)) of the same compound?
Answer: Its T/C is 92 % of control.

Question: And the T/C (dose: 45.0 mg/kg/injection, schedule: Q01DX005 (ip), vehicle: saline with Tween-80)?
Answer: Its T/C is 103 % of control.

Question: And the T/C (dose: 50.0 mg/kg/injection, schedule: Q01DX005 (ip), vehicle: Klucel (hydroxypropylcellulose) (HPC))?
Answer: Its T/C is 108 % of control.

Question: What about the T/C (dose: 90.0 mg/kg/injection, schedule: Q01DX005 (ip), vehicle: saline with Tween-80) of the same compound?
Answer: The T/C was 98 % of control.

Question: And the T/C (dose: 100.0 mg/kg/injection, schedule: Q01DX005 (ip), vehicle: Klucel (hydroxypropylcellulose) (HPC))?
Answer: The T/C was 104 % of control.
